# Target: T1, human kinase Mps-1 (Homo sapiens, UniProt P33981)
# T1 construct: N-terminally GST-tagged human full length recombinant Mps-1 kinase; GST (N); purchased Invitrogen, Karslruhe, Germany PV4071
# T1 sequence (P33981 1-857): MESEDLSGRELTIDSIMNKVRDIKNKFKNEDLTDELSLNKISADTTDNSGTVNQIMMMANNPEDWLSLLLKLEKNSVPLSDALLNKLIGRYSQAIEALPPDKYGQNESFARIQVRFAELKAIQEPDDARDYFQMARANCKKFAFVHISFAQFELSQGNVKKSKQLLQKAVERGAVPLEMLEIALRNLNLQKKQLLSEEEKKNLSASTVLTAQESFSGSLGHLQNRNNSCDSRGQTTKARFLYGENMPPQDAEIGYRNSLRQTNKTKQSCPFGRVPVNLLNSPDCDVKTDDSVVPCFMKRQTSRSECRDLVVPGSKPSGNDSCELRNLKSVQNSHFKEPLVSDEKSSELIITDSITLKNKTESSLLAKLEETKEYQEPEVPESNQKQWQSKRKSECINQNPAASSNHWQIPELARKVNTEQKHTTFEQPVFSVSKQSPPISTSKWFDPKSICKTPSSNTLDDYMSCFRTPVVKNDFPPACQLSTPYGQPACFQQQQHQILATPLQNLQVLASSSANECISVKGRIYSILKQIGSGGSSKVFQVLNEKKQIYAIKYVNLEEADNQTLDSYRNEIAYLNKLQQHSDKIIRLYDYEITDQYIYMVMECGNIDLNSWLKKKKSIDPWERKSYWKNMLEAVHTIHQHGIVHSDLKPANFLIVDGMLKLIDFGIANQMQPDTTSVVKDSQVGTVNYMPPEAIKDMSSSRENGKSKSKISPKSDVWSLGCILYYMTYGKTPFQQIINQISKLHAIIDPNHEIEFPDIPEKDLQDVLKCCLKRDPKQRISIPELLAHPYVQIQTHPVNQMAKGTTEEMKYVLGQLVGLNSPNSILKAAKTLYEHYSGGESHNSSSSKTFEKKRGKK
# Assay: Mps-1 kinase assay (TR-FRET)
# Type: biochemical
# Settings: N-terminally GST-tagged human full length recombinant Mps-1; 10 μM ATP; 1 μM peptide substrate; 15 min pre-incubation; 60 min at 22° C.
# Method in brief: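 N-terminally GST-tagged full-length recombinant human Mps-1, about 1 nM final, phosphorylates a biotinylated peptide. Product detected by TR-FRET from Eu-anti-phospho-Ser/Thr antibody to streptavidin-XLent after 1 h at 22° C.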
row,Compound,IC50 [nM]
1,"CC(=O)Nc1ccccc1-c1cn2c(-c3ccc(C(=O)NC4CC4)cc3)cnc2c(NCC(C)C)n1 [Example 1-14, 4-{6-[2-(acetylamino)phenyl]-8-[(2-methyl-propyl)amino]imidazo [1,2-a]pyrazin-3-yl}-N-cyclopropylbenzamide]",11.2
2,"CCN1CCC(CNc2nc(-c3ccc(F)cc3)cn3c(-c4ccc(C(=O)NC5CC5)c(C)c4)cnc23)C1 (stereo not drawn) [Example 10-9, N-cyclopropyl-4-[8-{[(1-ethylpyrrolidin-3-yl)methyl]amino}-6-(4-fluorophenyl)imidazo [1,2-a]pyrazin-3-yl]-2-methylbenzamide]",63.4
3,"CC(C)CNc1nc(-c2ccc(C3CC3)cc2)cn2c(-c3ccc(C(=O)NC4CC4)cc3)cnc12 [Example 7-1, N-cyclopropyl-4-[6-(4-cyclopropylphenyl)-8-(isobutylamino)imidazo[1,2-a]pyrazin-3-yl]benzamide]",31.8
4,"CC(C)CNc1nc(-c2ccc(C(=O)N3CCCC3)cc2)cn2c(-c3ccc(C(=O)NC4CC4)cc3)cnc12 [Example 1-26, N-cyclopropyl-4-{8-[(2-methylpropyl)amino]-6-[4-(pyrrolidin-1-yl-carbonyl)phenyl]imidazo [1,2-a]pyrazin-3-yl} benzamide]",3.9
5,"O=C(NC1CC1)c1ccc(-c2cnc3c(NCC4CCC4)nc(-c4ccccc4)cn23)cc1 [Example 2-73, 4-{8-[(Cyclobutylmethyl)amino]-6-phenylimidazo[1,2-a]pyrazin-3-yl}-N-cyclopropylbenzamide]",2.3
6,"Cc1cc(-c2cnc3c(NCC4CCC(C)(O)CC4)nc(-c4ccc(F)cc4)cn23)ccc1C(=O)NC1CC1 (stereo not drawn) [Example 10-7, N-cyclopropyl-4-[6-(4-fluorophenyl)-8-{[(4-hydroxy-4-methylcyclo-hexyl)methyl]amino}imidazo[1,2-a]pyrazin-3-yl]-2-methylbenzamide]",5.4
7,"COc1cccc(-c2cn3c(-c4ccc(C(=O)NC5CC5)cc4)cnc3c(NCC(C)C)n2)c1OC [Example 1-17, N-cyclopropyl-4-{6-(2,3-dimethoxyphenyl)-8-[(2-methylpropyl)amino]imidazo[1,2-a]pyrazin-3-yl}benzamide]",14.4
8,"CN1CCCC1CCNc1nc(-c2ccccc2)cn2c(-c3ccc(C(=O)NC4CC4)cc3)cnc12 (stereo not drawn) [Example 2-10, N-cyclopropyl-4-(8-{[2-(1-methylpyrrolidin-2-yl)ethyl]amino}-6-phenylimidazo[1,2-a]pyrazin-3-yl)benzamide]",16.6
9,"O=C(NC1CC1)c1ccc(-c2cnc3c(NCC4CCCO4)nc(-c4ccccc4CO)cn23)cc1Cl (stereo not drawn) [Example 1-106, 2-chloro-N-cyclopropyl-4-{6-[2-(hydroxymethyl)phenyl]-8-[(tetrahydro-furan-2-ylmethyl)amino]imidazo[1,2-a]pyrazin-3-yl}benzamide]",56.2
10,"CSc1ccccc1-c1cn2c(-c3ccc(C(=O)NC4CC4)cc3)cnc2c(NCC(C)C)n1 [Example 1-70, N-cyclopropyl-4-{8-[(2-methylpropyl)amino]-6-[2-(methylsulfanyl)phenyl]imidazo[1,2-a]pyrazin-3-yl}benzamide]",3.2
11,"Cc1cccc(-c2cn3c(-c4ccc(C(=O)NC5CC5)cc4)cnc3c(NCC(C)C)n2)c1 [Example 1-8, N-cyclopropyl-4-{6-(3-methylphenyl)-8-[(2-methylpropyl)amino]imidazo[1,2-a]pyrazin-3-yl}benzamide]",4.9
12,"Cc1cc(-c2cnc3c(NCC4CC(=O)N(C)C4)nc(-c4ccc(F)cc4)cn23)ccc1C(=O)NC1CC1 (stereo not drawn) [Example 10-13, N-cyclopropyl-4-[6-(4-fluorophenyl)-8-{[(1-methyl-5-oxopyrrolidin-3-yl)methyl]amino}imidazo[1,2-a]pyrazin-3-yl]-2-methylbenzamide]",7.2
13,NCCCNc1nc(-c2ccccc2)cn2c(-c3ccc(C(=O)NC4CC4)cc3)cnc12 [Example 2-68],17.4
14,"O=C(NC1CC1)c1ccc(-c2cnc3c(NCc4cc[nH]n4)nc(-c4ccccc4)cn23)cc1 [Example 2-55, N-cyclopropyl-4-{6-phenyl-8-[(1H-pyrazol-3-ylmethyl)amino]imidazo[1,2-a]pyrazin-3-yl} benzamide]",2.7
15,"CC(C)CNc1nc(-c2cccc(NS(C)(=O)=O)c2)cn2c(-c3ccc(C(=O)NC4CC4)cc3)cnc12 [Example 1-15, N-cyclopropyl-4-(8-[(2-methylpropyl)amino]-6-{3-[(methylsulfonyl)amino]phenyl}imidazo [1,2-a]pyrazin-3-yl) benzamide]",1.8
16,"O=C(NC1CC1)c1ccc(-c2cnc3c(NCC4CCCCC4)nc(-c4cccc5ncccc45)cn23)cc1 [Example 1-128, 4-{8-[(cyclohexylmethyl)amino]-6-(quinolin-5-yl)imidazo[1,2-a]pyrazin-3-yl}-N-cyclopropylbenzamide]",1.2
17,"Cc1cc(-c2cnc3c(NCCC(F)(F)F)nc(-c4ccccc4CO)cn23)ccc1C(=O)NC1CC1 [Example 1-138, N-cyclopropyl-4-{6-[2-(hydroxymethyl)phenyl]-8-[(3,3,3-trifluoro-propyl)amino]imidazo[1,2-a]pyrazin-3-yl}-2-methylbenzamide]",1.9
18,"CC(C)(O)CNc1nc(C2=CCOCC2)cn2c(-c3ccc(C(=O)NC4CC4)c(Cl)c3)cnc12 [Example 1-102, 2-chloro-N-cyclopropyl-4-{6-(3,6-dihydro-2H-pyran-4-yl)-8-[(2-hydroxy-2-methylpropyl)amino]imidazo[1,2-a]pyrazin-3-yl}benzamide]",99
19,"CC(C)CNc1nc(-c2ccc3cc[nH]c3c2)cn2c(-c3ccc(C(=O)NC4CC4)cc3)cnc12 [Example 1-23, N-cyclopropyl-4-{6-(1H-indol-6-yl)-8-[(2-methyl-propyl)amino]imidazo [1,2-a]pyrazin-3-yl} benzamide]",21
20,"CC(C)CNc1nc(-c2cc(Cl)cc(Cl)c2)cn2c(-c3ccc(C(=O)NC4CC4)cc3)cnc12 [Example 1-10, N-cyclopropyl-4-{6-(3,5-dichlorophenyl)-8-[(2-methylpropyl)amino]imidazo[1,2-a]pyrazin-3-yl}benzamide]",1110
21,"Cc1ccccc1CNc1nc(-c2ccccc2)cn2c(-c3ccc(C(=O)NC4CC4)cc3)cnc12 [Example 2-5, N-cyclopropyl-4-{8-[(2-methylbenzyl)amino]-6-phenylimidazo[1,2-a]pyrazin-3-yl}benzamide]",6.5
22,"CC(C)CNc1nc(-c2ccc(S(C)(=O)=O)cc2)cn2c(-c3ccc(C(=O)NC4CC4)cc3)cnc12 [Example 1-75, N-cyclopropyl-4-{8-[(2-methylpropyl)amino]-6-[4-(methylsulfonyl)phenyl]imidazo[1,2-a]pyrazin-3-yl}benzamide]",2.5
23,"CC(C)CNc1nc(-c2ccc(C(C)O)cc2)cn2c(-c3ccc(C(=O)NC4CC4)cc3)cnc12 (racemic) [Example 6-2, (RS)N-cyclopropyl-4-{6-[4-(1-hydroxyethyl)phenyl]-8-(isobutylamino)imidazo[1,2-a]pyrazin-3-yl}benzamide]",1.1
24,"CC(C)(O)CNc1nc(-c2ccccc2CO)cn2c(-c3ccc(C(=O)NC4CC4)c(Cl)c3)cnc12 [Example 1-100, 2-chloro-N-cyclopropyl-4-{6-[2-(hydroxymethyl)phenyl]-8-[(2-hydroxy-2-methylpropyl)amino]imidazo[1,2-a]pyrazin-3-yl}benzamide]",86.5
